Legend:
SKH-1 mice [1] = assay: Skinfold thickness (edema) after acute UV-B exposure of 360 mJ/cm2; format: in vivo; details: FIG. 1
Method: UVB Acute exposure protocols were used: Mice underwent a single exposure of 360 mJ/cm2. The study was conducted at 24 hours after exposure. This protocol was used to evaluate the photoprotective effect of the compounds studied. With the same acute-phase protocol mice from all groups were irradiated. Subsequently mice remained in the animal storage area for a week to see the evolution of the inflammatory response and edema. For the UVB exposure studies (chronic or acute) a topical administration to the back of the mouse was conducted. The commercial sunscreens were applied directly on the mouse. The polyphenols in the study were administered in a liposomal preparation diluted 1:1 with Carbopol polymer which will be the vehicle for these liposomes. Each polyphenol dose administered was 10 μmol/mouse, as free acid. • 1. Edema formation: skinfold thickness was determined with a caliper 24 hours after the first exposure. • 2. Study of the thickness of the epidermis after exposure to acute irradiation (360 mj/cm^2 24 h hours and 7 days after irradiation). • 3. Histological studies: measuring, in the pictures obtained from histological sections, the thickness of the epidermis. With the purpose of assessing the effects of the photoprotective compounds studied, female mice SKH-1 of between 6-8 weeks old were subjected to a single exposure of 360 mJ/cm. For the ultraviolet B (UVB) irradiation exposure, a camera specifically prepared, available at our laboratory was used (Crosslinker; Bio-Link BLX 254) equipped with 5 tubes that produce 80% of the UVB radiation, with a maximum emission of 312 nm. The two protocols of UV-B exposure used were: • Intense exposure after a single exposure of 360 mJ/cm^2. The study was carried out 24 hours after the exposure. This protocol was used to assess the photoprotective effects of the compounds studied. • Intense exposure after a single exposure of 360 mJ/cm^2. The study was carried out 1 week after the exposure. The mice were kept in the shed for a week to observe the evolution of the inflammatory and edematous response. As reference, several commercial photoprotective products were used ([…] Heliocare). The reference compounds as well as the products object of this study, were applied on the back of the mice for 20 minutes after or 20 minutes before the irradiation with UV-B, to determine if the reaction observed was due to an effect of the solar filter or not. […] The skinfold was measured by making a fold on the skin from the back of the mice, from the axillae to the hips; the fold was measured with a vernier caliper. The increase in the fold was calculated by the difference between the initial point, before the effects of the reaction, and the thickness in each point.

SKH-1 mice [2] = assay: Thickness of the epidermis after acute UV-B exposure of 360 mJ/cm2; format: in vivo; details: FIG. 2, versus group treated only with UV-B
Method: UVB Acute exposure protocols were used: Mice underwent a single exposure of 360 mJ/cm2. The study was conducted at 24 hours after exposure. This protocol was used to evaluate the photoprotective effect of the compounds studied. With the same acute-phase protocol mice from all groups were irradiated. Subsequently mice remained in the animal storage area for a week to see the evolution of the inflammatory response and edema. • 1. Edema formation: skinfold thickness was determined with a caliper 24 hours after the first exposure. • 2. Study of the thickness of the epidermis after exposure to acute irradiation (360 mj/cm^2 24 h hours and 7 days after irradiation). • 3. Histological studies: measuring, in the pictures obtained from histological sections, the thickness of the epidermis. For studies of acute exposure skin samples were taken from the back of the mouse. These samples were fixed with 4% paraformaldehyde (24 hours) and embedded in paraffin. Following cutting the samples were stained with hematoxylin and eosin. The two protocols of UV-B exposure used were: • Intense exposure after a single exposure of 360 mJ/cm^2. The study was carried out 24 hours after the exposure. This protocol was used to assess the photoprotective effects of the compounds studied. • Intense exposure after a single exposure of 360 mJ/cm^2. The study was carried out 1 week after the exposure. The mice were kept in the shed for a week to observe the evolution of the inflammatory and edematous response. At 24 hours or 1 week after the administration of the different treatments the mice were sacrificed and their skin fixed with 4% PFA. To measure the thickness of the epidermis to evaluate possible hyperplasia, a computer program was used, Image J, calibrated with the assistance of a Neubauer camera which allowed the measuring of the epidermis. Results obtained were statistically analyzed by ANOVA and contrasted by the Tukey test and grouped according to the significant differences. […] Therefore PTER alone could be used efficiently in the prevention of skin diseases, injuries or damages induced by ultraviolet B radiation. The evaluation of skin thickness was carried out by using computer software (IMAGE J). Results obtained by ANOVA were contrasted by the Tukey test and grouped according to the significant differences. […] Therefore PTER separately could be used efficiently in the prevention of skin diseases, damages or injuries induced by ultraviolet B radiation.

[3] = Asensi et al. 2002; cited from earlier work
SKH-1 mice [4] = assay: Anatomopathological study of the skin after chronic exposure to UV-B; format: in vivo; set-up: key to Stroma: Parakeratosis: (+) light; (+++) serious; details: after 30 weeks chronic UV-B 180 mJ/cm2
Method: Histochemical techniques were used to study the skin tissues of the different procedures, at a microscopic level.
The tissues were fixed in 4% formaldehyde in PBS over 24 h at 22° C. After the tissues were fixed, they had to be dehydrated in large amounts of ethanol and placed in a hydrophobic and xylene mixture to allow the paraffin to penetrate the tissues to provide sufficient consistency for slicing them thinly in a microtome.
The samples in paraffin were processed with the microtome obtaining slices of about 5-10 μm. The samples were spread over a drop of gelatin at 37° C. and were collected in gelatinized slides.
The protocol used for staining the samples was: • 1. Incubation with Mayer's Hematoxylin for 10-15 minutes. • 2. Wash under running water until bluish. • 3. Incubate with Eosin (1%) for 2-4 minutes. • 4. Eliminate the remaining eosin in ethanol 70° • 5. Dehydration. • 6. Rinse with xylol for 3 minutes. • 7. Let the trays dry out on the stove at 37°.
In relation to the histopathological exam of the tumors induced by chronic irradiation to UV in the SKH1 mice, it was confirmed that the treatment with UV-B produced a strong acanthosis due primarily to the inflammatory process; this gave way to the first signs of tumors, mostly of carcinoma type and not melanoma.
Both the reference compounds and the ones subject of this study (10 μmoles/mouse of polyphenols, or 200 μl of each photoprotector) were applied to the back of the mice for 20 minutes prior to their exposure to UV-B. Medium of groups of 20 mice. Every parameter was measured according to the degree of seriousness (+) light-(+++) serious.

SKH-1 mice [5] = assay: Experimental psoriasis induced by TPA; format: in vivo
Method: For the induction of psoriasis, the agent “12-O-tetradecanoylphorbol-13 acetate” (TPA) was used.
Since our objective was to assess the progress of the lesions caused by psoriasis in combination with the use of polyphenols, a model of continuous exposure and a weaker concentration of TPA were used, on a daily dose of 2 nmoles of TPA over a period of a week, which allowed us to observe the progress of the psoriasis.
The induction was performed with 2 nmol TPA/mouse on an area of 1 cm^2, applying 10 μL of the 200 μM solution in acetone. This application protocol was carried out taking into account that when applying 20 μL as stated in the model, the volume increased considerably and it lost its concentration, therefore it was decided to make it more concentrated.
As a standard treatment, Dexamethasone was used, (from Sigma Solution 25 mM in acetone). The administration of the standard treatment and the products to be tested were given 30 minutes prior to the application of TPA, both beginning on the same day.
The groups, of 6 mice, for this assessment were: • Not treated. • Reference compound: 0.5 μmoles of Dexamethasone (200 μL of one solution 25 mM in acetone). • Medium: 200 μl of vacuumed Liposomes. • Resveratrol: 200 μL of Resveratrol Liposomes (10 μmol in total). • PTER: 200 μL of PTER Liposomes (10 μmol in total). • QUER: 200 μL of QUER Liposomes (10 μmol in total). • PTER+QUER:: 200 μL of PTER Liposomes+QUER (10 μmol in total).
At 24 hours (day 7) after the last administration of the different treatments and TPA, 3 mice from each group were sacrificed and their skin fixed with 4% PFA. The remaining mice were kept under the treatment with no exposure to TPA, to verify if the skin recovered faster on the treatment than on its own. At 24 hours (day 9) after the last administration of the different treatments the rest of the mice were sacrificed and their skin fixed with 4% PFA.
The flaky aspect of the skin was quantified in a scale of 0-3, being 0, nothing; 1, mild; 2, moderate; 3, severe.

[6] = Absorption spectrum of polyphenols (mechanical filter capacity); format: physicochemical; details: 1 mM in pure ethanol, 200-800 nm
Method: A solution of 1 mM of each polyphenol was prepared (PTER, Resveratrol and QUER) in absolute ethanol (HPLS quality; Quima) and the absorption spectrum was studied between 200 and 800 nm using a Multiskan Spectrum (ThermoScientific).
With the purpose of studying the capacity of the polyphenols used in this study, we decided to evaluate the absorption of light throughout the ultraviolet light spectrum as shown in FIG. 13.

mice = assay: Skinfold after continuous administration of treatments (side effects on skin); format: in vivo; details: daily for 6 consecutive days; 10 μmoles/mouse polyphenols, 0.5 μmoles/mouse dexamethasone
Method: FIG. 17. […] The application of the treatments 10 μmoles/mouse of polyphenols and 0.5 μmoles/mouse of dexamethasone was performed daily on a third of the back of the mice for 6 consecutive days. The skinfold was measured with the help of a vernier caliper.*p>0.001 with regards to the control. ANOVA followed by a Tukey test.
Prior to evaluating the results of different treatments on different models of dermatitis, the possible side effects of continues administration of polyphenols on the skin of the mice had to be evaluated as shown in FIG. 17. For this purpose, the dose for this daily evaluation was administered over 6 consecutive days.

Row | SMILES | formation of the edema (thickness of the skin) after severe UV-B exposure (SKH-1 mice [1]) | thickness of the epidermis 24 hours after irradiation (before or after application) (SKH-1 mice [2]) | bioavailability [3] | Tumor (no/mouse × group) (SKH-1 mice [4]; Table 4, applied 20 min prior) | Stroma: Parakeratosis (SKH-1 mice [4]; degree of seriousness) | increase of skinfold throughout the procedure (SKH-1 mice [5]; FIG. 23, 6 consecutive days, treatment 30 min prior to 2 nmol TPA) | increase in the skinfold 24 hours after the first administration of TPA (SKH-1 mice [5]; FIG. 24, treatment 30 min prior to 2 nmol TPA) | histological analysis of the lesions (SKH-1 mice [5]; FIG. 28, hematoxylin-eosin, TPA daily over 7 days) | absorption of light, range of maximum absorption [6] | skinfold / structure of the skin after continuous administration (mice)
1 | Oc1ccc(/C=C/c2cc(O)cc(O)c2)cc1 [RESV, 3,4′,5-trihydroxy-trans-stilbene, reference compound] | the formation of the edema was reduced | good photoprotection role but not as a repairer | low bioavailability | 3.8 | + | the evolution was similar with an increase in the formation of edema | did not produce any effect on the increase of the skinfold in comparison to the TPA group | resembles more the group treated with TPA, than the group with PTER | peaks or maximum absorption in the range of Ultraviolet B | –
2 | C[C@@H]1C[C@H]2[C@@H]3CCC4=CC(=O)C=C[C@]4(C)[C@@]3(F)[C@@H](O)C[C@]2(C)[C@@]1(O)C(=O)CO [dexamethasone] | – | – | – | – | – | – | – | – | – | did have side effects on the structure of the skin

— US20130136778A1, “PTEROSTILBENE (PTER) FOR USE IN THE PREVENTION AND/OR TREATMENT OF SKIN DISEASES, DAMAGES OR INJURIES” (GREEN MOLECULAR, S.L., priority 2009, published 2013)
